# Experimental data as given in patent US20110251191A1, “USE OF SUBSTITUTED 2, 3-DIHYDROIMIDAZO[1,2-C]QUINAZOLINES FOR THE TREATMENT OF MYELOMA” (BAYER SCHERING PHARMA AKTIENGESELLSCHAFT, priority 2008, published 2011).
# How the values were obtained:
# Format in all cases: cell-based
# [1] = test system: KMS-12-PE; assay: proliferation assay (CellTiter-Glo), KMS-12-PE; settings: Homo sapiens; KMS-12-PE cells, 72-hour drug exposure
# Method: (§1) In accordance with the invention, the compounds were assessed in a cell-based assay that measures the capacity of the compounds to inhibit tumor cell proliferation following a 72-hour drug exposure. Cell viability is determined using CellTiter-Glo® Luminescent Cell Viability Assay (Promega). Cells were plated at 2000-5000 cells/well (depending on the cell lines) in 100 μL growth medium on 96-well microtiterplate. For each cell line assayed, cells were plated onto a separate plate for determination of Luminescence at t=0 hour and t=72 hour time points. Following overnight incubation at 37° C., Luminescence values for the t=0 samples were determined. Dose plates for the t=72 hour time points were treated with compounds diluted into growth medium. Cells were then incubated for 72 hours at 37° C. Luminescence values for the t=72 hour samples were determined. For data analysis, briefly, t=0 values were subtracted from those determined for the t=72 hour time points, for both the treated and untreated samples. Percent differences in […] between drug-treated and control values were used to determine the percent inhibition of growth.
# [2] = test system: L363; assay: proliferation assay (CellTiter-Glo), L363; settings: Homo sapiens, L-363; L363 cells, 72-hour drug exposure
# Method: as §1
# [3] = test system: Molm13; assay: proliferation assay (CellTiter-Glo), Molm13; settings: Homo sapiens, MOLM-13; Molm13 cells, 72-hour drug exposure
# Method: as §1
# [4] = test system: Molp8; assay: proliferation assay (CellTiter-Glo), Molp8; settings: Homo sapiens, MOLP-8; Molp8 cells, 72-hour drug exposure
# Method: as §1
# [5] = test system: OPM2; assay: proliferation assay (CellTiter-Glo), OPM2; settings: Homo sapiens, OPM-2; OPM2 cells, 72-hour drug exposure
# Method: as §1
# [6] = test system: Molp2; assay: proliferation assay (CellTiter-Glo), Molp2; settings: MOLP-2; Molp2 cells, 72-hour drug exposure
# Method: as §1
# [7] = test system: LP-1; assay: proliferation assay (CellTiter-Glo), LP-1; settings: LP-1 cells, 72-hour drug exposure
# Method: as §1
# [8] = test system: KMS-12-BM; assay: proliferation assay (CellTiter-Glo), KMS-12-BM; settings: KMS-12-BM cells, 72-hour drug exposure
# Method: as §1
# [9] = test system: RPMI 8226; assay: proliferation assay (CellTiter-Glo), RPMI 8226; settings: Homo sapiens; RPMI 8226 cells, 72-hour drug exposure
# Method: as §1
# [10] = test system: multiple myeloma cell lines; assay: proliferation assays with multiple myeloma cell lines (summary); settings: range over 9 multiple myeloma cell lines, 72-hour drug exposure; read-out: IC50s, proliferation of 9 multiple myeloma tested
# Method: as §1
smiles,measurement,setting,value
"COc1c(OCCCN2CCOCC2)ccc2c1N=C(NC(=O)c1cnc(N)nc1)N1CCN=C21 [Compound A, 2-amino-N-[7-methoxy-8-(3-morpholin-4-ylpropoxy)-2,3-dihydroimidazo[1,2-c]quinazolin-5-yl]pyrimidine-5-carboxamide]",IC50,[1],67 nM
same,IC50,[2],8.1 nM
same,IC50,[3],69 nM
same,IC50,[4],23 nM
same,IC50,[5],92 nM
same,IC50,[6],12 nM
same,IC50,[7],3.7 nM
same,IC50,[8],3.7 nM
same,IC50,[9],48 nM
same,IC50,[10],3 to 100 nM
